{"source": "PubChem BioAssay AID588764", "about": "(Broad Institute, 2011)", "target": "Histone acetyltransferase RTT109 (Candida albicans (strain SC5314 / ATCC MYA-2876)) (UniProt Q5AAJ8)", "sequence (Q5AAJ8 whole entry, looked up)": "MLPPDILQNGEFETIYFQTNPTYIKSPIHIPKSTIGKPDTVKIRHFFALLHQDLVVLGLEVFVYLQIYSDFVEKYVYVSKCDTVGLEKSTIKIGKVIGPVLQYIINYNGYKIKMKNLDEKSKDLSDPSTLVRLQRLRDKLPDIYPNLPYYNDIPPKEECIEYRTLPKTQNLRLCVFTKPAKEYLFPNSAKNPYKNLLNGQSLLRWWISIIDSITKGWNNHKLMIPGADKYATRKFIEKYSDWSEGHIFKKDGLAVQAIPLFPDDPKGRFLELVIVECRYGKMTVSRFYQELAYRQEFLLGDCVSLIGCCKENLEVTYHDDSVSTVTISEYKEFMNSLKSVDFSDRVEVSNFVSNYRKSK", "experiment": "C. albicans Rtt109 HAT inhibition curves – biochemical, cherry-picked hits, plate reader, dose response (AID 588764);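 as to activity change, negative = inhibition: 0% = neutral control wells and -100% = no enzyme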", "details": "Rtt109/Vps75 HAT activity; for activity change, negative = inhibition: at 19.5 µM (top of the series)", "note": "Inconclusive results are not listed. The source made the active and inactive calls. No rule for the calls is given here.", "data": [{"smiles": "O=S(=O)(c1ccc(Cl)cc1)N1CCN(c2ncccn2)CC1", "values": [{"measurement": "activity change, negative = inhibition", "result": "inactive"}]}, {"smiles": "CCCCc1ccc(-n2c(Cc3cccs3)n[nH]c2=S)cc1", "values": [{"measurement": "activity change, negative = inhibition", "result": "inactive"}]}, {"smiles": "CCn1c(C)c(CS(=O)(=O)c2ccccc2)[nH]c1=O", "values": [{"measurement": "AC50", "result": 11.3, "unit": "µM"}]}, {"smiles": "Cc1cc(C)nc(N2CCC(C(=O)Nc3ccc4c(c3)OCCO4)CC2)n1", "values": [{"measurement": "activity change, negative = inhibition", "result": "inactive"}]}, {"smiles": "CCCC[n+]1c(C)sc2cc(OC)ccc21", "values": [{"measurement": "activity change, negative = inhibition", "result": "inactive"}]}, {"smiles": "C[C@H](NC(=O)c1ccco1)C(=O)Nc1ccc(S(=O)(=O)N2CCCC2)cc1", "values": [{"measurement": "activity change, negative = inhibition", "result": "inactive"}]}, {"smiles": "COc1ccc(OC)c2sc(N(CCCN(C)C)C(=O)CCS(=O)(=O)c3ccccc3)nc12", "values": [{"measurement": "AC50", "result": 20.1, "unit": "µM"}]}, {"smiles": "Cc1ccc(CN2CCN(CC(=O)NCc3ccccc3)CC2)cc1", "values": [{"measurement": "activity change, negative = inhibition", "result": "inactive"}]}, {"smiles": "O=C(Nc1ccc(F)cc1)c1c(O)c2c(n(Cc3ccccc3)c1=O)CCCC2", "values": [{"measurement": "activity change, negative = inhibition", "result": "inactive"}]}, {"smiles": "CCCCS(=O)(=O)/C=C\\C=C/S(=O)(=O)CCCC", "values": [{"measurement": "AC50", "result": 7.19, "unit": "µM"}]}, {"smiles": "CCN(c1ccc(OC)cc1)S(=O)(=O)c1nnc(NC(=O)COc2ccc(C)cc2)s1", "values": [{"measurement": "activity change, negative = inhibition", "result": "inactive"}]}, {"smiles": "NC(N)=N/N=C/c1ccc(OCc2ccccc2)c(OCc2ccccc2)c1", "values": [{"measurement": "activity change, negative = inhibition", "result": "inactive"}]}, {"smiles": "O=C(/C=C/c1ccc(Cl)cc1)NCc1ccncc1", "values": [{"measurement": "activity change, negative = inhibition", "result": "inactive"}]}, {"smiles": "COc1cc2nc(NCCCN3CCN(C)CC3)n3nc(-c4ccccc4)nc3c2cc1OC", "values": [{"measurement": "activity change, negative = inhibition", "result": "inactive"}]}, {"smiles": "CC(=O)/C(=N/Nc1ccccc1)Sc1nnc(C(O)c2ccccc2)n1-c1ccccc1", "note": "(stereo not drawn)", "values": [{"measurement": "activity change, negative = inhibition", "result": "inactive"}]}, {"smiles": "CC(C)C(=O)Nc1nnc(CCN2CCCCC2)s1", "values": [{"measurement": "activity change, negative = inhibition", "result": "inactive"}]}, {"smiles": "COc1ccc(-n2nc3c(c2NC(=O)c2ccc(N4C(=O)CCC4=O)cc2)CSC3)cc1", "values": [{"measurement": "activity change, negative = inhibition", "result": "inactive"}]}, {"smiles": "CC(C)C[C@@H]1CN=C(N)N1C[C@@H]1CCCN1C[C@H](C)N1C[C@@H](Cc2ccccc2)N(CCc2ccc(Cl)c(Cl)c2)C1=N", "values": [{"measurement": "activity change, negative = inhibition", "result": "inactive"}]}, {"smiles": "COc1cc(NC(=O)COc2c(C)cc(C)cc2[N+](=O)[O-])c(OC)cc1Cl", "values": [{"measurement": "activity change, negative = inhibition", "result": "inactive"}]}, {"smiles": "Nc1ccc(Nc2ccncc2[N+](=O)[O-])cc1", "values": [{"measurement": "activity change, negative = inhibition", "result": "inactive"}]}, {"smiles": "CSS(=O)(=O)c1cccc2cccnc12", "values": [{"measurement": "AC50", "result": 7.95, "unit": "µM"}]}, {"smiles": "COc1ccc(S(=O)(=O)N(C)C)cc1NC(=O)Cc1ccc(S(=O)(=O)N2CCOCC2)s1", "values": [{"measurement": "activity change, negative = inhibition", "result": "inactive"}]}, {"smiles": "COc1cccc(C(=O)NNC(=O)CCC(=O)O)c1", "values": [{"measurement": "activity change, negative = inhibition", "result": "inactive"}]}, {"smiles": "CN(C(=O)c1ccc(N2CCCCC2)c([N+](=O)[O-])c1)C1(C)CCS(=O)(=O)C1", "note": "(stereo not drawn)", "values": [{"measurement": "activity change, negative = inhibition", "result": "inactive"}]}, {"smiles": "O=C(NCc1ccccc1)c1nc(S(=O)(=O)Cc2ccccc2)ncc1Cl", "values": [{"measurement": "AC50", "result": 15, "unit": "µM"}]}, {"smiles": "Cc1nnc(SC2CC(=O)N(c3ccccc3)C2=O)s1", "note": "(stereo not drawn)", "values": [{"measurement": "AC50", "result": 17.5, "unit": "µM"}]}, {"smiles": "Cc1ccc(C2=NC(C)(C)N=C2SCC(=O)Nc2ccc(Cl)cc2)cc1", "values": [{"measurement": "activity change, negative = inhibition", "result": "inactive"}]}, {"smiles": "Cc1ccccc1Nc1nnc(SCC2CCCCO2)s1", "note": "(stereo not drawn)", "values": [{"measurement": "activity change, negative = inhibition", "result": "inactive"}]}, {"smiles": "Cc1ccc(CN(C(=O)c2ccccc2C)C2CCS(=O)(=O)C2)o1", "note": "(stereo not drawn)", "values": [{"measurement": "activity change, negative = inhibition", "result": "inactive"}]}, {"smiles": "Fc1ccc(C2CC(c3ccco3)=Nc3ccccc3S2)cc1", "note": "(stereo not drawn)", "values": [{"measurement": "activity change, negative = inhibition", "result": "inactive"}]}, {"smiles": "Cc1cc(C)c2sc(C)[n+](CCCS(=O)(=O)[O-])c2c1", "values": [{"measurement": "activity change, negative = inhibition", "result": "inactive"}]}, {"smiles": "CCCCCCCCCCCCCCCC[N+](C)(C)CCN(Cc1ccc(OC)cc1)c1ncccn1", "values": [{"measurement": "AC50", "result": 16.1, "unit": "µM"}]}, {"smiles": "CCN1C=CC(=C2C(=O)c3ccccc3C2=O)C=C1", "values": [{"measurement": "activity change, negative = inhibition", "result": "inactive"}]}, {"smiles": "COc1ccc(-n2cnc3scc(-c4ccc(OC)c(OC)c4)c3c2=O)cc1", "values": [{"measurement": "activity change, negative = inhibition", "result": "inactive"}]}, {"smiles": "COc1ccc(CN(C)C(=O)c2cc(S(=O)(=O)N3CCCCCC3)ccc2OC)cc1OC", "values": [{"measurement": "activity change, negative = inhibition", "result": "inactive"}]}, {"smiles": "CCOc1cc(S(=O)(=O)N2CCC(Cc3ccccc3)CC2)c(OCC)cc1-n1cnnn1", "values": [{"measurement": "activity change, negative = inhibition", "result": "inactive"}]}, {"smiles": "O=C1Nc2cc(C(=O)NCCCN3CCCC3)ccc2S/C1=C\\c1ccccc1", "values": [{"measurement": "activity change, negative = inhibition", "result": "inactive"}]}, {"smiles": "CCCCCCCCCCn1c2c(c(=N)c3c1CCC3)CCC2", "values": [{"measurement": "activity change, negative = inhibition", "result": "inactive"}]}]}
